How the values were obtained:
adenosine A2B receptor = adenosine A2B receptor (Homo sapiens (Human), UniProt P29275); assay: Radioligand binding competition assay, adenosine A2B receptor (HEK-293-A2b cell membranes); conditions: 300 nM compound
Experimental: (§1) Binding of selected compounds to the adenosine A1, A2A, A2B, and A3 receptors was tested using a binding competition assay.
(§2) The general protocol for the radioligand binding competition assay was as follows. Competition binding was performed in duplicate in the wells of a 96 well plate (Master Block, Greiner, 786201) containing binding buffer (optimized for each receptor), membrane extracts (amount of protein/well optimized for each receptor), radiotracer (final concentration optimized for each receptor), and test compound. Nonspecific binding was determined by co-incubation with 200-fold excess of cold competitor. The samples were incubated in a final volume of 0.1 mL at 25° C. for 60 minutes and then filtered over filter plates. Filters were washed six times with 0.5 mL of ice-cold washing buffer (optimized for each receptor) and 50 μL of Microscint 20 (Packard) were added on each filter. The filter plates were sealed, incubated 15 min on an orbital shaker and scintillation counted with a TopCount for 30 sec/filter.
Similarly, the following reagents were used for the adenosine A2B radioligand binding competition assay: HEK-293-A2b cell membranes, 20 μg/well, preincubated 30 min at RT with […] Adenosine Deaminase; a binding buffer comprising HEPES 10 mM pH7.4, EDTA 1 mM, 0.5% BSA; a wash buffer comprising HEPES 10 mM pH7.4, EDTA 1 mM; a Unifilter GF/C—treated for 2 h with 0.5% PEI; and 10 nM ^3H-DPCPX as the tracer.
(§3) CHO-K1-A3 cell membranes, 1.5 μg/well; a binding buffer comprising HEPES 25 mM pH 7.4, MgCl2 5 mM, CaCl2 1 mM, 0.5% BSA; a wash buffer comprising HEPES 25 mM pH 7.4, MgCl2 5 mM, CaCl2 1 mM; a Unifilter GF/C—treated for 2 h with 0.5% BS; and 0.4 nM of ^125I-AB-MECA as the tracer. The results of the binding assay are shown in Table B1-1 and are shown as percent residual binding at a given concentration. Percent of residual binding means binding of a compound in the presence of competitor normalized to the amount of binding in the absence of competitor. […] For example, compound 1 strongly bound to A2A (30% residual binding at a concentration of 100 nM), A1 (−3% residual binding at 300 nM) and A2B, (−9% residual binding at 300 nM) but weakly bound to A3 (96% residual binding at 300 nM).

adenosine A2A receptor [1] = molecular target: T1, adenosine A2A receptor (Homo sapiens (Human), UniProt P29274); assay: Radioligand binding competition assay, adenosine A2A receptor
Experimental: as §1, §2
For the adenosine A2A receptor radioligand binding assay, the following modifications were made to the general protocol. GF/C filters (Perkin Elmer, 6005174), presoaked in 0.01% Brij for 2 h at room temperature were used. Filters were washed six times with 0.5 mL of ice-cold washing buffer (50 mM Tris pH 7.4) and 50 μL of Microscint 20 (Packard) was added in each well. The plates were then incubated for 15 min on an orbital shaker and then counted with a TopCount™ for 1 min/well.
Another radioligand binding assay was used to evaluate the binding affinity for the adenosine A2A receptor assay was performed in duplicate in the wells of a 384 plate. Assay buffer contained DPBS 500 mM, MgCl2 0.1 mM, and 1% DMSO. Membrane-bead suspension was prepared by mixing 25.98 μL of human adenosine A2A membrane preparation (Perkin Elmer, RBHA2AM400UA) at 33.4 pg/mL, 28 μL of ADA at 20 pg/mL, and 932 μL of SPA beads at 3.33 mg/mL) and incubated the mixture for 20 min at room temperature. Mixed 20 μL of radiotracer (^3H-SCH 58261) at 15 nM to each well containing test articles at various concentrations and centrifuge the plate at 1000 rpm for 1 minute. Added 30 μL of the membrane-bead suspension to each well. Sealed the plates and incubated for 1 hr at room temperature with vigorous mixing on a plate mixer. Plates were read on Microbeta^2 (Perkin Elmer, 2450-0010).
as §3

adenosine A2A receptor [2] = molecular target: T1, adenosine A2A receptor; assay: cAMP assay in HEK-293 cells expressing human recombinant adenosine A2A receptor; format: cell-based; conditions: first cAMP table
Experimental: The functional activity of compounds was tested using one of the two assays to detect the present of cAMP. Activation of G-protein coupled receptors (such as A2A) results in activation of adenylcyclase which converts ATP into cAMP which is used as a downstream signaling molecule. Therefore, molecules which act as GPCR (or specifically A2A receptor) antagonists cause a decrease in intracellular cAMP concentration.
Both assays used HEK-293 cells expressing human recombinant adenosine A2A receptor were grown prior to the test in media without antibiotic. Assay 1: The cells were detached by gentle flushing with PBS-EDTA (5 mM EDTA), recovered by centrifugation and suspended in assay buffer (KRH: 5 mM KCl, 1.25 mM MgSO4, 124 mM NaCl, 25 mM HEPES, 13.3 mM Glucose, 1.25 mM KH2PO4, 1.45 mM CaCl2, 0.5 g/L BSA, supplemented with Rolipram).
12 μL of cells were mixed with 6 μL of the test compound at increasing concentrations and then incubated for 10 min. Thereafter 6 μL of the reference agonist was added at a final concentration corresponding to the historical EC80. The plates were then incubated for 30 min at room temperature. After addition of the lysis buffer and 1 hour incubation, cAMP concentrations were estimated, according to the manufacturer specification, with the HTRF® kit.
Assay 2: 100 nL of test articles at 100× of final concentration were transferred to assay plate by Echo. Cells were washed twice with 5 mL of PBS […]. After aspirating the PBS and adding 1.5 mL versine, cells were incubated at 37° C. for 2-5 min. After centrifugation, 4 mL of medium was added and adjusted cell density to 5,000 cells/well with stimulation buffer. 10 μL of cells were aliquoted to the assay plate, centrifuged at 1000 rpm for 1 minute, and incubated for 60 minutes at room temperature. 5 μL 4× Eu-cAMP tracer solution and 5 μL 4× Ulight™-anti-cAMP solution were added to assay plate, followed by centrifugation and 60-minute incubation at room temperature. Plates were read on EnVision.

adenosine A1 receptor = adenosine A1 receptor (Homo sapiens (Human), UniProt P30542); assay: Radioligand binding competition assay, adenosine A1 receptor (CHO-K1-A1 cell membranes); conditions: 300 nM compound
Experimental: as §1, §2
For the adenosine A1 radioligand binding competition assay, a similar procedure was used except that the following reagents were used: CHO-K1-A1 cell membranes; binding buffer comprising HEPES 25 mM pH 7.4, MgCl2 5 mM, CaCl2 1 mM, NaCl 100 mM, saponin 10 µg/mL; wash buffer comprising HEPES 25 mM pH 7.4, MgCl2 5 mM, CaCl2 1 mM, NaCl 100 mM; Unifilter GF/B—treated for 2 h with 0.5% PEI was the filter; and 1.6 nM of ^3H-DPCPX was the tracer.
as §3

adenosine A3 receptor = adenosine A3 receptor (Homo sapiens (Human), UniProt P0DMS8); assay: Radioligand binding competition assay, adenosine A3 receptor (CHO-K1-A3 cell membranes); conditions: 300 nM compound
Experimental: as §1, §2
For the adenosine A3 radioligand binding competition assay, the following reagents were used:
as §3

T1 sequence (P29274 whole entry): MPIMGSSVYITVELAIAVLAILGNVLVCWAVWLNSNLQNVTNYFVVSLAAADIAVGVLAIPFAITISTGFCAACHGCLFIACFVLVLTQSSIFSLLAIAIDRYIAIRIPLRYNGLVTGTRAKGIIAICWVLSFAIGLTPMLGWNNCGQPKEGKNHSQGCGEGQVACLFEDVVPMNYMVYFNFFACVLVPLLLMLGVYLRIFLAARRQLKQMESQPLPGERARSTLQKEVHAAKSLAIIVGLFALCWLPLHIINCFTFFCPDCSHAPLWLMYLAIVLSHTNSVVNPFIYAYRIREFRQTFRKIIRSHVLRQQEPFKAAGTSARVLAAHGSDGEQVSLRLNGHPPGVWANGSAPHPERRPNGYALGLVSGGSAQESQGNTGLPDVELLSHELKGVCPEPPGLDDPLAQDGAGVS
Chain of adenosine A1 receptor (P30542 whole entry): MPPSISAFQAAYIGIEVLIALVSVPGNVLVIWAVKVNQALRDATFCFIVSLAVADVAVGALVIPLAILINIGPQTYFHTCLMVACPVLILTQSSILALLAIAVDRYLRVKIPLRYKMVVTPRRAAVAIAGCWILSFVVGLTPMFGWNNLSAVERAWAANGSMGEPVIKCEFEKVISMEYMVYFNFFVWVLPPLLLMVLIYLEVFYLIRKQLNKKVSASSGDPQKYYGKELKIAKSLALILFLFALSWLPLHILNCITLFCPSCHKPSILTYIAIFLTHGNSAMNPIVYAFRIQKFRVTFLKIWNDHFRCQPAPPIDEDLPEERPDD
Chain of adenosine A2B receptor (P29275 whole entry): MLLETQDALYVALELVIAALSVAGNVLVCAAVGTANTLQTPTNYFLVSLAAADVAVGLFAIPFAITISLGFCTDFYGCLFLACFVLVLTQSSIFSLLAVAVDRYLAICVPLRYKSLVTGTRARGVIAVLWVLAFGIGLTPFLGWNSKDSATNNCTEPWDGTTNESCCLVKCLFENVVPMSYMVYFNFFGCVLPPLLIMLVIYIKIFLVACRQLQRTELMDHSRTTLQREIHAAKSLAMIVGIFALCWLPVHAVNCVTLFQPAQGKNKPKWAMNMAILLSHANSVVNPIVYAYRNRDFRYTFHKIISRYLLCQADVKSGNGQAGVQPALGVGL
Chain of adenosine A3 receptor (P0DMS8 whole entry): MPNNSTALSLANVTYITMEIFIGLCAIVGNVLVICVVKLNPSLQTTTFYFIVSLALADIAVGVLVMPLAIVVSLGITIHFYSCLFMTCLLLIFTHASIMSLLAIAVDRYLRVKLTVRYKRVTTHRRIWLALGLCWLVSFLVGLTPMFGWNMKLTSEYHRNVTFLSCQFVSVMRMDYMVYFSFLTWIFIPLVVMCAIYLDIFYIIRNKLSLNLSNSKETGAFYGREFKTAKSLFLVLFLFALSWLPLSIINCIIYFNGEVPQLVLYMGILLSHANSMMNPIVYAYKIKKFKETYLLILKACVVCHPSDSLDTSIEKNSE

Radioligand binding competition assay % residual binding @ 300 nM (A2b) (adenosine A2B receptor): 2%
IC50 (adenosine A2A receptor [1]): 181 nM
A2A radioligand binding competition assay % residual binding @ 100 nM (adenosine A2A receptor [1]; 100 nM compound): 74%
A2A radioligand binding competition assay % residual binding @ 300 nM (adenosine A2A receptor [1]; 300 nM compound): 38%
A2A radioligand binding competition assay % residual binding @ 1000 nM (adenosine A2A receptor [1]; 1000 nM compound): 12%
A2A radioligand binding competition assay % residual binding @ 3000 nM (adenosine A2A receptor [1]; 3000 nM compound): 22%
IC50 (adenosine A2A receptor [2]): 23 nM
Radioligand binding competition assay % residual binding @ 300 nM (A1) (adenosine A1 receptor): 11%
Radioligand binding competition assay % residual binding @ 300 nM (A3) (adenosine A3 receptor): 104%
Structure (SMILES): O=c1cc[nH]c2nc(-c3ccccc3)c(-c3ccc4ncccc4c3)cc12 [1.5, 7-phenyl-6-(quinolin-6-yl)-1,8-naphthyridin-4(1H)-one]
